The target in data set [1] is Bromodomain-containing protein 4 (Homo sapiens, UniProt O60885, Y390A).
A short description of data set [2]: Distribution coefficient, log D of the compound at pH 7.4 by chromatographic method. The data set is classed as physicochemical.
Data set [3] can be described thus: Lipophilicity, log P of the compound. As to conditions: octanol/water. It counts as physicochemical.
Data set [4] addresses Bromodomain-containing protein 2 (Homo sapiens, UniProt P25440, Y113A).
The target in data set [5] is Bromodomain-containing protein 3 (Homo sapiens, UniProt Q15059, Y37A). In words: Binding affinity to BRD3 6-His-Thr BRD3 (1 to 435) BD2 (unknown origin) harboring BD1 Y37A mutant.
The target of data set [6] is Bromodomain-containing protein 2 (Homo sapiens, UniProt P25440, Y386A).
The nature of data set [7]: Permeability across phosphatidyl choline membrane at pH 7.4 after 3 hrs by HPLC with UV detection method. It counts as ADME. As to conditions: not told, read-out: permeability.
The target of data set [8] is Bromodomain testis-specific protein (Homo sapiens, UniProt Q58F21, Y66A). As to the kind of experiment: Binding affinity to 6-His-FLAG-Tev-BRDT BD2 (1 to 397) (unknown origin) harboring BD1 Y66A mutant.
The target in data set [9] is Bromodomain-containing protein 3 (Homo sapiens, UniProt Q15059, Y348A). As to the kind of experiment: Binding affinity to 6-His-Thr BRD3 (1 to 435) BD1 (unknown origin) harboring BD2 Y348A mutant.
In data set [10] the target is Bromodomain testis-specific protein (Homo sapiens, UniProt Q58F21, Y309A). As to the kind of experiment: Binding affinity to 6-His-FLAG-Tev-BRDT BD1 (1 to 397) (unknown origin) harboring BD2 Y309A mutant.
Data set [11] can be described thus: Solubility of the compound in phosphate buffered saline at pH 7.4 after 1 hr by CLND method. It counts as physicochemical.
For data set [12], the target named is Bromodomain-containing protein 4 (Homo sapiens, UniProt O60885, Y97A).

What is called IC50 is the concentration that gives 50% inhibition. By chromatographic logD is commonly meant a lipophilicity value derived from retention on a column. Read a low chromatographic logD as a more hydrophilic compound. By logP is commonly meant a log measure of how a compound divides between an organic and an aqueous phase. High values mean a more lipophilic compound, low ones a more hydrophilic compound. By kinetic solubility is commonly meant solubility judged after dilution from a stock solution rather than from solid.

Converted amounts (≈) assume the structure as drawn.

Bromodomain-containing protein 2 (Homo sapiens, UniProt P25440, Y386A), sequence (P25440 whole entry Y386A): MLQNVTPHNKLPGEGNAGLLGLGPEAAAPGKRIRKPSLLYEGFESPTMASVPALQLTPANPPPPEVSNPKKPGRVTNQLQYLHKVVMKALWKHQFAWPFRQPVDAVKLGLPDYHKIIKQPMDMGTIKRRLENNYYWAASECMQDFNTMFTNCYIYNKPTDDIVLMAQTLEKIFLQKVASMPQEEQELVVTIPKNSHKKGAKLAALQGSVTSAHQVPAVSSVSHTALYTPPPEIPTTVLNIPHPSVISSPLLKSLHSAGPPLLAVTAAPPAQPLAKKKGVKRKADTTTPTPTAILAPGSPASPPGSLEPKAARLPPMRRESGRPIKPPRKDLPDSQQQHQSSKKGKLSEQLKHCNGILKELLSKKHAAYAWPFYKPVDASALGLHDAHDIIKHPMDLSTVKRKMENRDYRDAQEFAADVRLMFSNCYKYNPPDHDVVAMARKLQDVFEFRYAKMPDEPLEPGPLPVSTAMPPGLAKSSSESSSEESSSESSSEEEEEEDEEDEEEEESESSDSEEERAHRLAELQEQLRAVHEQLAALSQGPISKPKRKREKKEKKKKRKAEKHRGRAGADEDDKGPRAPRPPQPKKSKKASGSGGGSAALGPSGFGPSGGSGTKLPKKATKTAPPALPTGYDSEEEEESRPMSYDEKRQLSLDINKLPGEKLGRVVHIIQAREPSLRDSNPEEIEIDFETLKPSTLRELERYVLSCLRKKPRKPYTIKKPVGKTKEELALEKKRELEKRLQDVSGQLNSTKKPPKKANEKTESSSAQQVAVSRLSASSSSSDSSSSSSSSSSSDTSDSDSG
Bromodomain-containing protein 3 (Homo sapiens, UniProt Q15059, Y348A), sequence (Q15059 2-726 Y348A limits assumed): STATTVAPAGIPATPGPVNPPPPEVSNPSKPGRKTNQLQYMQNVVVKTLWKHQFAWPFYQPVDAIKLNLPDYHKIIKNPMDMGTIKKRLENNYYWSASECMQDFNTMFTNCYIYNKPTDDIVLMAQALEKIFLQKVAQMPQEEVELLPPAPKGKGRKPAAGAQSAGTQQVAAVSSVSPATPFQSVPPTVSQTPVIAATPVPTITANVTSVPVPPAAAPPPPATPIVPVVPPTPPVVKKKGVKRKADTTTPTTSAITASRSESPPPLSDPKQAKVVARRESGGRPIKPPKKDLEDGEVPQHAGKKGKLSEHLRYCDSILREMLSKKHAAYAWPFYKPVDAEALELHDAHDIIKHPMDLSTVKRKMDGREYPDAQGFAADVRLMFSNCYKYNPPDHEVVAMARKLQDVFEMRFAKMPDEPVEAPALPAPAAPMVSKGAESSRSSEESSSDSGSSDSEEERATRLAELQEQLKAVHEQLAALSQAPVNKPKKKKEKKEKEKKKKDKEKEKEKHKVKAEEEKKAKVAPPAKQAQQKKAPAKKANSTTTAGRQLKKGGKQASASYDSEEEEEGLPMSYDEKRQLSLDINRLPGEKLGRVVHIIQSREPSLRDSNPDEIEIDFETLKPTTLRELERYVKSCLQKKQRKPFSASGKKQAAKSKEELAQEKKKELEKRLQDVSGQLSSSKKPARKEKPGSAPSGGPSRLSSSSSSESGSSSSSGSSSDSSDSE
Bromodomain-containing protein 3 (Homo sapiens, UniProt Q15059, Y37A), sequence (Q15059 whole entry, looked up, stated change not applied): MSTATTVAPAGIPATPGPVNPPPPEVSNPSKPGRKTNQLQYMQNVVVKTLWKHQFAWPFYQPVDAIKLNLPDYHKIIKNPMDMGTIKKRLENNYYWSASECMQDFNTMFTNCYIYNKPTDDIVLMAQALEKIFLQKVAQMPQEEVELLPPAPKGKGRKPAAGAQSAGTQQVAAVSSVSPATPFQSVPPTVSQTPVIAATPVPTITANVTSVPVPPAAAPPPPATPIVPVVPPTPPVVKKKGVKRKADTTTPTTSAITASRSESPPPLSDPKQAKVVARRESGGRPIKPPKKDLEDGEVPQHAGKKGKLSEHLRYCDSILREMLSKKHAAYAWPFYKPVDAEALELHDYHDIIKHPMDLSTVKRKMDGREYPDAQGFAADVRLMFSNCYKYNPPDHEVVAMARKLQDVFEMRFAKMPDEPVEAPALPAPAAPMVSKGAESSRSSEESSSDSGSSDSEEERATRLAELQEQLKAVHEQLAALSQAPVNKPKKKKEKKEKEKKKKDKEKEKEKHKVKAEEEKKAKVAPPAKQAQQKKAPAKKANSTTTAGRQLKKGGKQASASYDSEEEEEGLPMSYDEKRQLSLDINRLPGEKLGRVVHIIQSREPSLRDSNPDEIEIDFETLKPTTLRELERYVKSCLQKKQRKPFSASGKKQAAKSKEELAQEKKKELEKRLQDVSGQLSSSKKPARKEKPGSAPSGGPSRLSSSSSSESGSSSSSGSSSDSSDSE
Bromodomain-containing protein 2 (Homo sapiens, UniProt P25440, Y113A), sequence (P25440 whole entry Y113A): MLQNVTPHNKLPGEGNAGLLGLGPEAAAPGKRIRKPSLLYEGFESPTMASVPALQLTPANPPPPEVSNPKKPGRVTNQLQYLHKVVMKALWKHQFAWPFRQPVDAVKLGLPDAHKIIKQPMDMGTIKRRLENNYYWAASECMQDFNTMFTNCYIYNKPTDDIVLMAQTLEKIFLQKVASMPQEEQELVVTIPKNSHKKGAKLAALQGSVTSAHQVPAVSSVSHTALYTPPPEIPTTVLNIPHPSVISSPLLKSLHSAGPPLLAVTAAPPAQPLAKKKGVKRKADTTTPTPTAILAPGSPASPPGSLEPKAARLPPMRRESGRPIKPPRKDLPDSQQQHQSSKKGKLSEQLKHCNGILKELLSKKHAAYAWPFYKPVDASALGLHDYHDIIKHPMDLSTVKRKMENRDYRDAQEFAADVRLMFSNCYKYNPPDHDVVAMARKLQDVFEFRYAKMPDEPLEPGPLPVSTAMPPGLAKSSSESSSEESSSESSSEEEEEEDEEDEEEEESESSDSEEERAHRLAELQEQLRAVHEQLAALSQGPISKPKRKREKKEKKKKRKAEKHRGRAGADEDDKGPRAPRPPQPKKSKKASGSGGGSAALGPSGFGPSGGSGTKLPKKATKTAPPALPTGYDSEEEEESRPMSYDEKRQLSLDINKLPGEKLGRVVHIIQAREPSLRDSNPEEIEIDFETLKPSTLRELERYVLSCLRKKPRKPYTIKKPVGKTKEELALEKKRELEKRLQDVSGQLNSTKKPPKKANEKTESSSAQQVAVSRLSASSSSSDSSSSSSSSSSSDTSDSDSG

`Cc1cc2cccc(NCCO)c2[nH]c1=O` showed an IC50 in [1] of 39.8 µM. In [2], `Cc1cc2c(-c3cncnc3)cnc(NC3CCNCC3)c2[nH]c1=O` came in with a chromatographic logD of 0.3. In addition, 15.8 µM corresponded to half-maximal inhibition in data set [1] (IC50). In turn, `Cc1cc2ccnc(N[C@@H]3CCCNC3)c2[nH]c1=O` showed a concentration for half-maximal inhibition (IC50) in [1] of 15.8 µM.

For the molecule `Cc1cc2ccnc(NCCC3CCNCC3)c2[nH]c1=O`, the IC50 in data set [1] was 12.6 µM. On the same count and under the same terms, in the case of `Cc1cc2ccccc2[nH]c1=O` it was 39.8 µM.

In the case of `Cc1cc2c(-c3cccc(O)c3)cnc(NC3CCNCC3)c2[nH]c1=O`, in [2], the chromatographic logD worked out at 1.3. The molecule further had an IC50 in data set [1] of 0.631 µM. For `Cc1cc2c(-c3ccccn3)cnc(NC3CCNCC3)c2[nH]c1=O`, in that order: 1 and 5.01 µM. Turning to `Cc1cc2c(-c3cn[nH]c3)cnc(NC3CCNCC3)c2[nH]c1=O`, the chromatographic logD in data set [2] was found to be 0. Besides, 0.794 µM corresponded to half-maximal inhibition in data set [1] (IC50). For `COCCN1CCC(Nc2nccc3cc(C)c(=O)[nH]c23)CC1`, the chromatographic logD in [2] was 1.4. Take `CCCNc1cccc2cc(C)c(=O)[nH]c12`: the IC50 in [1] was above 50.1 µM. Regarding `Cc1cc2c(-c3ccncc3)cnc(NC3CCNCC3)c2[nH]c1=O`, the chromatographic logD in data set [2] was determined as 1. The molecule further showed an IC50 in [1] of 3.16 µM. `Cc1cc2ccnc(NCCC3CCCNC3)c2[nH]c1=O` (configuration not stated) had an IC50 in data set [1] of 25.1 µM.

In data set [2], `Cc1cncc(-c2cnc(NC3CCNCC3)c3[nH]c(=O)c(C)cc23)c1C` had a chromatographic logD of 1.4. The same molecule gave a half-inhibitory concentration (IC50) in [1] of 7.94 µM. With `Cc1cc2ccnc(NCC(C)(C)CN(C)C)c2[nH]c1=O`, in data set [1], the IC50 was 158 µM.

In turn, `Cc1cc2c(-c3cccc4[nH]ncc34)cnc(NC3CCNCC3)c2[nH]c1=O` showed a chromatographic logD in [2] of 1.2. Besides, the half-inhibitory concentration (IC50) in data set [1] is 0.126 µM. `COCCNc1cccc2cc(C)c(=O)[nH]c12`: the IC50 in data set [1] is above 50.1 µM. As to `Cc1cc2c(-c3cncc(Cl)c3)cnc(NC3CCNCC3)c2[nH]c1=O`, the chromatographic logD in data set [2] was determined as 1.7. In data set [1], this molecule gave an IC50 of 6.31 µM. For `Cc1ccc(-c2cnc(NC3CCNCC3)c3[nH]c(=O)c(C)cc23)cn1`, in that order: 1.1 and 1 µM. In the case of `Cc1cc2c(-c3cccnc3)cnc(NC3CCNCC3)c2[nH]c1=O`, the chromatographic logD in data set [2] was 0.8. In addition, half-maximal inhibition in [1] (IC50) required 2 µM. Turning to `Cc1cncc(-c2cnc(NC3CCNCC3)c3[nH]c(=O)c(C)cc23)c1`, the lipophilicity (logP) in [3] is 2.4. Also, the half-inhibitory concentration (IC50) in data set [4] was 20 µM; in data set [5] it was 20 µM; in data set [6], 6.31 µM; in data set [8] it was 31.6 µM; in data set [9], 7.94 µM; in data set [10], 7.94 µM. For the same molecule, the Papp at 3 h in data set [7] is below 0.3 ×10⁻⁶ cm/s. In [2], the chromatographic logD was 1.2. Moreover, in data set [11], the kinetic solubility at 1 h is at least 207 µM. In data set [2], `Cc1cc2ccnc(N[C@@H]3C[C@H]4CC[C@@H](C3)N4C)c2[nH]c1=O` returned a chromatographic logD of 1. In data set [2], `Cc1cc2c(-c3cncc(COC(N)=O)c3)cnc(NC3CCNCC3)c2[nH]c1=O` registered a chromatographic logD of 0.3. Take `Cc1cc2c(-c3cncc(N)c3)cnc(NC3CCNCC3)c2[nH]c1=O`: the chromatographic logD in data set [2] turned out to be 0. The same molecule showed an IC50 in [1] of 2 µM. As to `Cc1cc2ccnc(N[C@H]3C[C@H]4CC[C@@H](C3)N4C)c2[nH]c1=O`, the chromatographic logD in [2] was found to be 1.2. Molecule `COc1cncc(-c2cnc(NC3CCNCC3)c3[nH]c(=O)c(C)cc23)c1` came in with a logP in data set [3] of 2.7. Besides, the concentration for half-maximal inhibition (IC50) in data set [4] was 20 µM; in data set [5], 20 µM; in [6], 3.98 µM; in data set [8] it was 25.1 µM; in data set [12] it was 15.8 µM; in data set [9], 6.31 µM. The IC50 in [1] is 1.26 µM; in [10] it was 6.31 µM. Further, the Papp at 3 h in data set [7] is below 0.3 ×10⁻⁶ cm/s. The molecule further gave a chromatographic logD in data set [2] of 1.1. For the same molecule, in data set [11], the solubility (kinetic) at 1 h was found to be 250 µM (≈ 91.4 µg/mL). Take `COCCCN1CCC(Nc2nccc3cc(C)c(=O)[nH]c23)CC1`: the chromatographic logD in data set [2] turned out to be 1.4. Also, the midpoint of inhibition in data set [1], the IC50, lay at 3.98 µM.

Regarding `Cc1cc2ccnc(NC3CCN(C4CC4)CC3)c2[nH]c1=O`, in data set [2], the chromatographic logD came out at 2.8. For the molecule `Cc1cc2c(-c3cc[nH]n3)cnc(NC3CCNCC3)c2[nH]c1=O`, the chromatographic logD in [2] was 0.4. Besides, half-maximal inhibition in data set [1] (IC50) required 1.26 µM. Take `Cc1cc2cccc(NCCN(C)C)c2[nH]c1=O`: in [1], 25.1 µM corresponded to half-maximal inhibition (IC50). On to `CC(=O)N1CCc2cc(-c3cnc(NC4CCNCC4)c4[nH]c(=O)c(C)cc34)ccc21`, for which the chromatographic logD in data set [2] stood at 1.4. For the same molecule, half-maximal inhibition in data set [1] (IC50) was put at 1 µM. In turn, `Cc1cc2cccc(NCCCN(C)C)c2[nH]c1=O` gave an IC50 in [1] of 10 µM.

`Cc1cc2cccc(NCc3ncc[nH]3)c2[nH]c1=O` gave a concentration for half-maximal inhibition (IC50) in [1] of 50.1 µM.

In turn, `Cc1cc2c(-c3ccccc3)cnc(NC3CCNCC3)c2[nH]c1=O` came in with a chromatographic logD in [2] of 2.5. Also, in data set [1], half-maximal inhibition (IC50) required 0.794 µM.

As to `Cc1ncccc1-c1cnc(NC2CCNCC2)c2[nH]c(=O)c(C)cc12`, the chromatographic logD in data set [2] was determined as 0.8. Besides, half-maximal inhibition in data set [1] (IC50) required 6.31 µM. As for `Cc1cc2ccnc(NC3CCN(C)CC3)c2[nH]c1=O`, the chromatographic logD in [2] worked out at 0.5. Still for that read-out and setting: to `Cc1cc2ccnc(NC3CCNCC3)c2[nH]c1=O` belongs 0.6.

`Cc1cc2cccc(NCCC(=O)O)c2[nH]c1=O` gave an IC50 in [1] above 50.1 µM. On to `Cc1cc2c(-c3cncc(C(N)=O)c3)cnc(NC3CCNCC3)c2[nH]c1=O`, for which the chromatographic logD in data set [2] was -0.2. In data set [1], this molecule had a half-maximal inhibitory concentration (IC50) of 3.98 µM.

In the case of `Cc1cc2cccc(NCCCO)c2[nH]c1=O`, the half-maximal inhibitory concentration (IC50) in data set [1] was 5.01 µM. The molecule `COc1ccc(-c2cnc(NC3CCNCC3)c3[nH]c(=O)c(C)cc23)cn1` displayed a chromatographic logD in data set [2] of 1.6. Moreover, half-maximal inhibition in data set [1] (IC50) required 1.26 µM.

Consider `Cc1ccncc1-c1cnc(NC2CCNCC2)c2[nH]c(=O)c(C)cc12`, for which the chromatographic logD in data set [2] was 0.9. This molecule gave an IC50 in [1] of 3.16 µM. For `Cc1cc2c(-c3cncc(NS(C)(=O)=O)c3)cnc(NC3CCNCC3)c2[nH]c1=O`, in that order: 0.2 and 0.794 µM.

Source of the values: ChEMBL document CHEMBL3585343, “Fragment-Based Discovery of Low-Micromolar ATAD2 Bromodomain Inhibitors” (J Med Chem, 2015).
